Experimental data published in US7872018B2, “Compounds and methods for kinase modulation, and indications therefor” (Plexxikon, Inc., priority 2006, dated 2011).

Key:
B-Raf = B-Raf (Homo sapiens, UniProt P15056); test: B-Raf kinase activity assay; type: biochemical; conditions: under the test conditions employed; read-out: IC50 toward kinase B-Raf
B-Raf V600E = B-Raf V600E (Homo sapiens, UniProt P15056, V600E); test: B-Raf V600E kinase activity assay; type: biochemical; conditions: under the test conditions employed; read-out: IC50 toward kinase B-Raf V600E
Sequence of B-Raf V600E (P15056 whole entry V600E): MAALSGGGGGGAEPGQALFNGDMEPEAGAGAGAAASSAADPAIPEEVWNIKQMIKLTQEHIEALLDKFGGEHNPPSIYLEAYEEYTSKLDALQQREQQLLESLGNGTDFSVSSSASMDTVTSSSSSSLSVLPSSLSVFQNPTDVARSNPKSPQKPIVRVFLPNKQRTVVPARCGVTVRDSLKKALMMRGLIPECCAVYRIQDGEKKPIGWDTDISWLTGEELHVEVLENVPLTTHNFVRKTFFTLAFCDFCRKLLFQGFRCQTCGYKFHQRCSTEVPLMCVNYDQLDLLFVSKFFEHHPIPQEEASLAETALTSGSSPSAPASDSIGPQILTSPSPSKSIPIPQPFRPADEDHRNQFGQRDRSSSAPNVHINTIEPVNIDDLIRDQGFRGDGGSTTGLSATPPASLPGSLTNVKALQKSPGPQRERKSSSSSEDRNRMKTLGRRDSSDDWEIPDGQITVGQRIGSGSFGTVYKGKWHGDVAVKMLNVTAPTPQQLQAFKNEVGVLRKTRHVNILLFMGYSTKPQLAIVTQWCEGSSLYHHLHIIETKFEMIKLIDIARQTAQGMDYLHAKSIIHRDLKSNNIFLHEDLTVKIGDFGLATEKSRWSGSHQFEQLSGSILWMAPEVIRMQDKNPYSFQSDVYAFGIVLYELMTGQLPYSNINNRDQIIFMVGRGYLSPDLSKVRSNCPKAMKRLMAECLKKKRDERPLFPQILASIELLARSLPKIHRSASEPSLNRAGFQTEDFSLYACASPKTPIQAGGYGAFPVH

Fms = target: T1, Fms (Homo sapiens, UniProt P07333); test: Fms biochemical assay (AlphaScreen or 33P-ATP); conditions: under the test conditions employed; read-out: IC50 toward kinase Fms
T1 construct: purchased Upstate Biotech 14-551
Excerpt: Each sample was at 5% DMSO.

Kit = target: T2, Kit (Homo sapiens, UniProt P10721); test: c-kit biochemical assay (AlphaScreen or 33P-ATP); conditions: under the test conditions employed; read-out: IC50 toward kinase Kit
T2 construct: P1332.N6 BI PTP KIT M552-K948-X COD; made in house; host or cells: E. coli BL21(DE3)RIL, co-expressed with PTP1B
T2 sequence (P10721 552-948): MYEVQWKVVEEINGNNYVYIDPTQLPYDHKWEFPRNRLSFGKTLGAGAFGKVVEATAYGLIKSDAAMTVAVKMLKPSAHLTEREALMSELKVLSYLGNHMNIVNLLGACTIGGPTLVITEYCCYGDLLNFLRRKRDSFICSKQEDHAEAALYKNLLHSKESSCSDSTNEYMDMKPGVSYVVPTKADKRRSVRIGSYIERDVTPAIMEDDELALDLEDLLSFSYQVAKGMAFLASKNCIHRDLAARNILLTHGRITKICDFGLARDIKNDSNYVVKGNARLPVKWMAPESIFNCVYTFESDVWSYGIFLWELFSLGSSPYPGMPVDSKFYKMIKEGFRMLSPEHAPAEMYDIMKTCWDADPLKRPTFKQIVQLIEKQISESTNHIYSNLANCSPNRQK
Procedure, shortened: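 Kinase activity read by AlphaScreen or 33P-ATP incorporation, with c-kit enzyme at 1 ng per sample. The enzyme was either commercial or a recombinant human kit construct made from a gene-synthesized coding sequence.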

Kdr = Kdr (Homo sapiens, UniProt P35968); test: Kdr kinase activity assay; type: biochemical; conditions: under the test conditions employed; read-out: IC50 toward kinase Kdr
Sequence of Kdr (P35968 20-1356): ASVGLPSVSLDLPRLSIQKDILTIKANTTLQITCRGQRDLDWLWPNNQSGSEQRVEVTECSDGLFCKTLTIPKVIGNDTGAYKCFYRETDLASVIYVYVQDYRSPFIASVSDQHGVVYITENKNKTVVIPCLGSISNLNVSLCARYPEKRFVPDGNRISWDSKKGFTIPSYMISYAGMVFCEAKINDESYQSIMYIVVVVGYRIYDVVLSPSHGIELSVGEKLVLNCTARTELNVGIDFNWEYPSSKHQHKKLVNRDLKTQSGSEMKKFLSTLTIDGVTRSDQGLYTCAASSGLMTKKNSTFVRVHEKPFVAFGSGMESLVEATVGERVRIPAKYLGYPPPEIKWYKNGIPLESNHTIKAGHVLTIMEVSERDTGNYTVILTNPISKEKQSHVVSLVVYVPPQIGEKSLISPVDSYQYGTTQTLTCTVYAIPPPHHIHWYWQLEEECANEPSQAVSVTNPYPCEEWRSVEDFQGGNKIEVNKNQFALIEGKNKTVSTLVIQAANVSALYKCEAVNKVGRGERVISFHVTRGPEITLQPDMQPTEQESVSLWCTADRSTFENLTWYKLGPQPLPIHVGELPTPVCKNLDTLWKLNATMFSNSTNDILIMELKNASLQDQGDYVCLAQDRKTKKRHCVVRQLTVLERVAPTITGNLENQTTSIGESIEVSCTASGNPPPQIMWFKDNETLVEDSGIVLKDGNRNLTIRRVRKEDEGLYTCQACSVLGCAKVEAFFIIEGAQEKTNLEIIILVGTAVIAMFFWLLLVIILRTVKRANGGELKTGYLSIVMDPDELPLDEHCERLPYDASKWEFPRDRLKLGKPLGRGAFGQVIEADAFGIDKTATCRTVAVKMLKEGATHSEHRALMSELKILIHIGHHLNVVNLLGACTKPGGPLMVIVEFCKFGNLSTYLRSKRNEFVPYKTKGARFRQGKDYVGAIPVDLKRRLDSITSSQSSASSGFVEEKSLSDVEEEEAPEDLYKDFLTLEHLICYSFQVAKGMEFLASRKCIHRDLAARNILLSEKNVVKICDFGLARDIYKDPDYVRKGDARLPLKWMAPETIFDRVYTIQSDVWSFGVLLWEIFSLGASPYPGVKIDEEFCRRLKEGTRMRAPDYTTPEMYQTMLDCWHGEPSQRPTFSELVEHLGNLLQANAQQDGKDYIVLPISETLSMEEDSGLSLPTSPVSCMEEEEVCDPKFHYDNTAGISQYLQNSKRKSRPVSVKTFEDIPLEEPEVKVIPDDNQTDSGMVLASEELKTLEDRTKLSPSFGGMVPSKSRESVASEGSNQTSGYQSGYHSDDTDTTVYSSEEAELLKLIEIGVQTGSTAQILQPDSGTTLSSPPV

TrkA = target: T3, TrkA (Homo sapiens, UniProt P04629); test: TrkA biochemical assay (AlphaScreen); conditions: under the test conditions employed; read-out: IC50 toward kinase TrkA
T3 construct: purchased Upstate Biotech 14-571
T3 sequence (P04629 33-796): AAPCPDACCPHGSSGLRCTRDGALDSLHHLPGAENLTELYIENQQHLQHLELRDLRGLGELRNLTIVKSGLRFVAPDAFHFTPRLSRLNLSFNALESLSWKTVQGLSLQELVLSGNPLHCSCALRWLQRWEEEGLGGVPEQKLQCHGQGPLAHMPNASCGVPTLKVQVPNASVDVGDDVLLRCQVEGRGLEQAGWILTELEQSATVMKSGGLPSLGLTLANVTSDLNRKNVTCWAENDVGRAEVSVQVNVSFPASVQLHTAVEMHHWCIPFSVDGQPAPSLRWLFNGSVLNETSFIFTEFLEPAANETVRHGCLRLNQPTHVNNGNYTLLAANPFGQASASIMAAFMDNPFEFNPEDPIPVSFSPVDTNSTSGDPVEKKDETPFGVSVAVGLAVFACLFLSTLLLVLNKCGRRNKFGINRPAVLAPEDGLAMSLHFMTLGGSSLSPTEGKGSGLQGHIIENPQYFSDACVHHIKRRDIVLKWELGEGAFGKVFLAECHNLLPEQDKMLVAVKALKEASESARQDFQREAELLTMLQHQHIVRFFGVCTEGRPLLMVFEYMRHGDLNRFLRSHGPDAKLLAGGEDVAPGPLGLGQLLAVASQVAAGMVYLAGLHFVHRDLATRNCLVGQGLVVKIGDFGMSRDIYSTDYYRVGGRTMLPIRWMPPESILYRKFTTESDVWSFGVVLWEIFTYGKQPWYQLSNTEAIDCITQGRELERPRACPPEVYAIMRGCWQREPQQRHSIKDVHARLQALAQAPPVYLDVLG
Protocol: Compounds tested were dissolved in DMSO (1 μL) and added to a white 384-well plate (Costar #3705). […] Each sample was at 5% DMSO. The plate was then incubated for 40 minutes at room temperature.

HGK = HGK (Homo sapiens, UniProt O95819); test: HGK (MAP4K4) biochemical assay (AlphaScreen); conditions: under the test conditions employed; read-out: IC50 toward kinase HGK
Sequence of HGK (O95819 whole entry): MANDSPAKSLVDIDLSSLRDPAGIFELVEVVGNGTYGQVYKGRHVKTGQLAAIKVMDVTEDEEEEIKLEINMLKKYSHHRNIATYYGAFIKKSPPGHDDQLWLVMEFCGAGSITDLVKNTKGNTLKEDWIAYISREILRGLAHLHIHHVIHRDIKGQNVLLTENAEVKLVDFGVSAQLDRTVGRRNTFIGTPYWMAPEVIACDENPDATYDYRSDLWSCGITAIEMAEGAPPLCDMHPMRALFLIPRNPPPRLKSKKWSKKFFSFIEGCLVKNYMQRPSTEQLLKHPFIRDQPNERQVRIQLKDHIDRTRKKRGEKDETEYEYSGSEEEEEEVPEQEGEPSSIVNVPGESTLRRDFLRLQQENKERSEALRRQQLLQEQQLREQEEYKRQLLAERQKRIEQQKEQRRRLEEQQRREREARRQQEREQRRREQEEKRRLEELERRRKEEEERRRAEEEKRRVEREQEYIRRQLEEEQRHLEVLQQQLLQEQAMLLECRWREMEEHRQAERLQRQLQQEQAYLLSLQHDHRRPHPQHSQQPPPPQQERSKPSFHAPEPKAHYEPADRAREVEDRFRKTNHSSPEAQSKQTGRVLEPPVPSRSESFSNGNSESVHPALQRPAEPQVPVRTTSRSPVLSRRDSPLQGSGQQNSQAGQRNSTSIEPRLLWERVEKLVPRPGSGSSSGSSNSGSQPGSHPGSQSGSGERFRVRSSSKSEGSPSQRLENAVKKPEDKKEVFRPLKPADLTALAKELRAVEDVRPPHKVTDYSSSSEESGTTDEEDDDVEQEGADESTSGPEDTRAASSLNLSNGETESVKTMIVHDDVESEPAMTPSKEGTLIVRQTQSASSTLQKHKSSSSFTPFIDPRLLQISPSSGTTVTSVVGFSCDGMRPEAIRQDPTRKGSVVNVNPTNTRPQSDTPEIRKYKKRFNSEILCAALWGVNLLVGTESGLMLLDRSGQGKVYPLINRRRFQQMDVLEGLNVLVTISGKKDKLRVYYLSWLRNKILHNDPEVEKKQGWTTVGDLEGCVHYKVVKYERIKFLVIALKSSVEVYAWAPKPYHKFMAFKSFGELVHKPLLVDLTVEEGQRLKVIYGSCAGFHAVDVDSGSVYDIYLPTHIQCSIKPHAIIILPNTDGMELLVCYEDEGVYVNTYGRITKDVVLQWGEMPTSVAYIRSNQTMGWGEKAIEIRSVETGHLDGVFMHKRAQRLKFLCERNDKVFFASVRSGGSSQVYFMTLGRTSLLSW
Protocol: Substrate was 10 nM biotin-ERM (T567/T564/T558, Cell Signaling, Inc., cat#1344). MAP4K4 kinase was at 0.5 ng per sample. After incubation of the kinase reaction for 40 min at room temperature, 5 μl of donor beads and protein A acceptor beads (Perkin Elmer Life Science, cat#67606017) at final concentration 1 μg/ml in stop buffer (20 mM Tris, pH 7.4, 200 mM Nacl, 100 mM EDTA, 0.03% BSA) was added, along with Phospho-ERM Antibody (T567/T564/T558, Cell Signaling, Inc., cat#3141) at 1:1000 dilution. […] Phosphorylated substrate results in binding of the antibody which binds to protein A acceptor bead and association of the donor and acceptor beads is such that the signal correlates with kinase activity.

Measured: IC50

Sequence of B-Raf (P15056 whole entry): as the sequence (P15056 whole entry V600E) above, with E600V counted along it

COc1cc(Cc2c[nH]c3ncccc23)ccc1OCc1ccc(Cl)cc1Cl [P-1568, 3-[4-(2,4-Dichloro-benzyloxy)-3-methoxy-benzyl]-1H-pyrrolo[2,3-b]pyridine]
≤ 10 µM: B-Raf | B-Raf V600E | Fms | Kit

COc1cnc2[nH]cc(Cc3cc(F)c(OCc4nc5ccccc5[nH]4)cc3Cl)c2c1 [P-2114, 2-[5-Chloro-2-fluoro-4-(5-methoxy-1H-pyrrolo[2,3-b]pyridin-3-ylmethyl)-phenoxymethyl]-1H-benzoimidazole]
not listed: B-Raf | B-Raf V600E
≤ 10 µM: all other assays above

COCCOc1cnc2[nH]cc(Cc3cc(F)c(OCc4nc5ccccc5[nH]4)cc3F)c2c1 [P-2176, 2-{2,5-Difluoro-4-[5-(2-methoxy-ethoxy)-1H-pyrrolo[2,3-b]pyridin-3-ylmethyl]-phenoxymethyl}-1H-benzoimidazole]
not listed: B-Raf | B-Raf V600E
≤ 10 µM: all other assays above

Fc1cc(OCc2nc3ccccc3[nH]2)cc(F)c1Cc1c[nH]c2ncc(Cl)cc12 [P-2105, 2-[4-(5-Chloro-1H-pyrrolo[2,3-b]pyridin-3-ylmethyl)-3,5-difluoro-phenoxymethyl]-1H-benzoimidazole]
≤ 10 µM: Fms | Kdr | Kit | HGK

COc1cc(Cc2c[nH]c3ncccc23)ccc1OCc1ccc(C(F)(F)F)cc1 [P-1721, 3-[3-Methoxy-4-(4-trifluoromethyl-benzyloxy)-benzyl]-1H-pyrrolo[2,3-b]pyridine]
≤ 10 µM: B-Raf | B-Raf V600E | Fms

COc1cc(Cc2c[nH]c3ncccc23)cc(Cl)c1OCc1ccc(Cl)cc1 [P-1616, 3-[3-Chloro-4-(4-chloro-benzyloxy)-5-methoxy-benzyl]-1H-pyrrolo[2,3-b]pyridine]
≤ 10 µM: B-Raf | Fms

O=C(c1c(F)ccc(OCc2ccccc2)c1F)c1c[nH]c2ncc(Cl)cc12 [P-1825, (3-Benzyloxy-2,6-difluoro-phenyl)-(5-chloro-1H-pyrrolo[2,3-b]pyridin-3-yl)-methanone]
≤ 10 µM: B-Raf

Clc1ccc(COc2ccc(Cl)c(Cc3c[nH]c4ncccc34)c2Cl)cc1 [P-1768, 3-[2,6-Dichloro-3-(4-chloro-benzyloxy)-benzyl]-1H-pyrrolo[2,3-h]pyridine]
≤ 10 µM: B-Raf | B-Raf V600E | Fms

O=C(c1c(Cl)ccc(OCc2ccc(Cl)cc2)c1Cl)c1c[nH]c2ncccc12 [P-1769, [2,6-Dichloro-3-(4-chloro-benzyloxy)-phenyl]-(1-pyrrolo[2,3-b]pyridin-3-yl)methanone]
≤ 10 µM: B-Raf | B-Raf V600E | Fms

O=C(c1c(F)ccc(OCc2ccccc2)c1F)c1c[nH]c2ncccc12 [P-1802, (3-Benzyloxy-2,6-difluoro-phenyl)-(1H-pyrrolo[2,3-b]pyridin-3-yl)-methanone]
≤ 10 µM: B-Raf | B-Raf V600E | Fms

COc1cc(Cc2c[nH]c3ncc(Cl)cc23)c(F)cc1OCc1nc2cc(S(=O)(=O)N(C)C)ccc2[nH]1 [P-2173, 2-[4-(5-Chloro-1H-pyrrolo[2,3-b]pyridin-3-ylmethyl)-5-fluoro-2-methoxy-phenoxymethyl]-1H-benzoimidazole-5-sulfonic acid dimethylamide]
not listed: B-Raf V600E | Kdr
≤ 10 µM: all other assays above
